# In patent US12258368B2, “Disulfide-linked reversible terminators” (CENTRILLION TECHNOLOGY HOLDINGS CORPORATION, priority 2018, dated 2025):
# Test system: DNA polymerase ("CENT1")
# Assay: Enzymatic incorporation (primer extension) into a growing DNA chain, with runaway reaction
# Type: biochemical
# Details: for blockage of further extension after incorporation of the terminator: "runaway" reaction in the presence of all four unmodified dNTPs and a polymerase, lane 4; for further extension by the next base added after the cleavage: lane 6; for enzymatic incorporation: in the presence of DNA polymerase ("CENT1"), lane 3
"continued extension in a ""runaway"" reaction after cleavage (all four unmodified dNTPs and a DNA polymerase, FIG. 4 lanes 7 and 8)",Structure (SMILES),blockage of further extension after incorporation of the terminator,further extension by the next base added after the cleavage,enzymatic incorporation
–,"CC(=O)SCO[C@H]1C[C@H](n2cc(C#CCNC(=O)OC(C)(C)C)c(=O)[nH]c2=O)O[C@@H]1COP(=O)(O)OP(=O)(O)OP(=O)(O)O [compound 60, S-((((2R,3S,5R)-5-(5-(3-((tert-butoxycarbonyl)amino)prop-1-yn-1-yl)-2,4-dioxo-3,4-dihydropyrimidin-1 (2H)-yl)-2-(((hydroxy((hydroxy(phosphonooxy)phosphoryl)oxy)phosphoryl)oxy)methyl)tetrahydrofuran-3-yl)oxy)methyl) ethanethioate]",blockage of further extension after incorporation of the terminator,further extension by the next base added,can be used in enzymatic incorporation
continued extension,"CSSCO[C@@H]1C[C@H](n2cc(C#CCNC(=O)OCCSSCCNC(=O)c3ccc(C4=c5cc6c(cc5Oc5cc7c(cc54)C(CS(=O)(=O)O)=CC(C)(C)N7)=NC(C)(C)C=C6CS(=O)(=O)O)cc3C(=O)O)c(=O)[nH]c2=O)O[C@@H]1COP(=O)(O)OP(=O)(O)OP(=O)(O)O [compound 75, (6-(3-carboxy-4-((2-((2-(((3-(1-((2R,4R,5R)-5-(((hydroxy((hydroxy(phosphonooxy)phosphoryl)oxy)phosphoryl)oxy)methyl)-4-((methyldisulfaneyl)methoxy)tetrahydrofuran-2-yl)-2,4-dioxo-1,2,3,4-tetrahydropyrimidin-5-yl)prop-2-yn-1-yl)carbamoyl)oxy)ethyl)disulfaneyl)ethyl)carbamoyl)phenyl)-2,2,10,10-tetramethyl-8-(sulfomethyl)-10,11-dihydro-2H-pyrano[3,2-g:5,6-g′]diquinolin-1-ium-4-yl)methanesulfonate]",excellent blockage,further extension with on base added,excellent enzymatic incorporation
